According to article PMC7351026, “Serum Half-Lives for Short- and Long-Chain Perfluoroalkyl Acids after Ceasing Exposure from Drinking Water Contaminated by Firefighting Foam” (Environmental Health Perspectives, 2020):
Read-outs that look alike come from different tables or passages of the source.

Tests used:
[1] = PFAS levels in urine samples of airport employees, specific-gravity adjusted (LC/MS/MS); type: in vivo, human; conditions: for Specific gravity adjusted urine level, median (range): second to fifth samplings, 17 airport employees
Method: Only one employee provided a single urine sample. […] All employees provided written informed consent.
The samples were thawed 1–2 h, then mixed by vortex shaker and manual turning. […] For the urine samples, 50μL urine was mixed with 25μL of methanol and 25μL of a 50% acetonitrile solution containing isotopically labeled internal standards (see Table S1). Then samples were shaken vigorously for 30 min and centrifuged at 3,000×g for 10 min at room temperature.
Aliquots of 20μL of the sample were analyzed using LC/MS/MS. […] The analysis was performed in negative ion mode. The ion source temperature was at 350°C.
(§1) Urinary PFAS concentrations were specific-gravity adjusted. The ratio of urine and serum concentration for each PFAS (urine/serum ratio) at each sampling was calculated based on PFAS concentrations in paired serum and urine samples from 17 employees. Then the personal average urine/serum ratio was calculated using the mean value of repeated samplings for each employee.

[2] = Population average serum elimination rate and half-life (linear mixed model, one compartment, first-order); conditions: for half-life: serum, oral; for half-life / Constant elimination rate (95% CI) / Half-life (95% CI): population average
Method: (§2) Serum PFAS concentrations were log-transformed. Time was calculated as the elapsed days between supply of clean bottled water and […] blood sampling. We assumed one compartment, first-order elimination kinetics. In this kinetic model, the body is considered as one homogeneous volume in which mixing is instantaneous and from which PFAS could be absorbed, transferred, and eliminated according to the rate of elimination that is proportional to the concentration of PFAS in the body. Two methods were used to estimate serum elimination rate constant (k) and half-life for each PFAS:
Briefly, in the linear mixed model In Cij=αi+tijβ+Xiβ′+εij, Cij is the serum concentration of PFAS for individual i at sampling round j; αi is the subject-specific intercept (random intercept); tij is the time; β is the average slope; Xi is a vector of fixed covariates for individual i; β′ stands for the fixed effect coefficients; and εij is the random error term. We modified the model by excluding the subject-specific slope (random slope) due to a failure to converge after inclusion, which may be due to the limited number of study subjects. The negative value of the average slope ( −β ) is the population average k, and average half-life is calculated as ln2/k .
In the linear mixed model, we included only age and sex as covariates. We based covariate selection on factors that could conceivably confound the PFAS half-life estimation. Working task, duration of employment, number of glasses of water per day, blood donation, and pregnancy before mitigation of PFAS exposure from drinking water can influence the initial serum levels but would not be expected to influence the PFAS half-life.
A sensitivity analysis was performed using the same linear mixed model but with Cij as the serum levels after subtracting general background levels (using the median levels obtained from the nonexposed reference population). If the serum PFAS levels after subtraction were lower than the half of the background levels, they were replaced with half of the background levels.

[3] = Individual serum elimination rate and half-life (linear regression per employee); conditions: individual estimate; for half-life: human, serum, oral, HL (half-life);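 on HL (half-life): half-life in years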
Method: as §2
Method 2: For estimation of individual k, linear regression was used to derive the slope ( β ) of the logarithm of serum concentrations vs. time for each employee. The negative value of the slope ( −β ) for each individual was equivalent to the individual k, and individual serum elimination half-life was calculated as ln2/k for each PFAS. If β was positive (i.e., PFAS concentrations tended to increase over the five samplings), the half-life was not calculated.

[4] = Serum/water ratio; type: in vivo, human; conditions: median serum level of first samples (26 employees) divided by airport drinking-water level
Method: The ratio of serum and water concentration for each PFAS (serum/water ratio) was calculated based on median serum level in the first serum sample obtained from all 26 airport employees divided by the drinking-water concentration. This ratio is an indicator of PFAS accumulation in body.

[5] = Urine/serum ratio in paired samples; type: in vivo, human; conditions: for Personal average urine/serum ratio, median (range): mean of four paired samplings per subject, 17 airport employees
Method: as §1

[6] = cited from earlier work; for Estimated half-life (geometric mean): Chinese population, from renal clearance of single paired serum and urine samples, ref Zhang et al. 2013
[7] = 2nd sampling (October 2018), count 17
[8] = 3rd sampling (November, 2018), count 16
[9] = 4th sampling (December 2018), count 14
[10] = 5th sampling (January 2019), count 12
[11] = model with original serum levels, age and sex as covariates
[12] = model with serum levels after subtraction of background exposure (sensitivity analysis)

O=C(O)C(F)(F)C(F)(F)C(F)(F)C(F)(F)C(F)(F)C(F)(F)F [PFHpA, perfluoroheptanoic acid]
Specific gravity adjusted urinary level, 25 percentile [1, 7]: 0.02 ng/mL
Specific gravity adjusted urinary level, 75 percentile [1, 7]: 0.04 ng/mL
Specific gravity adjusted urinary level, Max [1, 7]: 0.05 ng/mL
Specific gravity adjusted urinary level, Median [1, 7]: 0.03 ng/mL
Specific gravity adjusted urinary level, Min [1, 7]: < LOD
Specific gravity adjusted urinary level, 25 percentile [1, 8]: 0.01 ng/mL
Specific gravity adjusted urinary level, 75 percentile [1, 8]: 0.03 ng/mL
Specific gravity adjusted urinary level, Max [1, 8]: 0.08 ng/mL
Specific gravity adjusted urinary level, Median [1, 8]: 0.02 ng/mL
Specific gravity adjusted urinary level, Min [1, 8]: < LOD
Specific gravity adjusted urinary level, 25 percentile [1, 9]: 0.01 ng/mL
Specific gravity adjusted urinary level, 75 percentile [1, 9]: 0.03 ng/mL
Specific gravity adjusted urinary level, Max [1, 9]: 0.06 ng/mL
Specific gravity adjusted urinary level, Median [1, 9]: 0.02 ng/mL
Specific gravity adjusted urinary level, Min [1, 9]: < LOD
Specific gravity adjusted urinary level, 25 percentile [1, 10]: < LOD
Specific gravity adjusted urinary level, 75 percentile [1, 10]: 0.03 ng/mL
Specific gravity adjusted urinary level, Max [1, 10]: 0.06 ng/mL
Specific gravity adjusted urinary level, Median [1, 10]: 0.02 ng/mL
Specific gravity adjusted urinary level, Min [1, 10]: < LOD
Specific gravity adjusted urine level, median (range) [1]: 0.025 ( <LOD –0.080) ng/mL
half-life ([2]; human, Average serum half-life, linear mixed model with original serum levels, 17 airport employees after end of drinking-water exposure): 62 days
half-life ([2]; human, Half-life (95% CI), model with original serum levels, age and sex as covariates): 62.1 days
Constant elimination rate (95% CI) [2, 11]: 4.11 (3.13, 5.09) yearly
half-life ([3]; subject 1, 5 samples): 110 days
half-life ([3]; subject 2, 5 samples): 73 days
half-life ([3]; subject 3, 5 samples): 146 days
half-life ([3]; subject 4, 5 samples): 73 days
half-life ([3]; subject 5, 5 samples): 183 days
half-life ([3]; subject 6, 4 samples): 73 days
half-life ([3]; subject 7, 5 samples): 36.5 days
half-life ([3]; subject 8, 5 samples): 36.5 days
half-life ([3]; subject 9, 5 samples): 36.5 days
half-life ([3]; subject 10, 5 samples): 110 days
half-life ([3]; subject 11, 5 samples): 110 days
half-life ([3]; subject 12, 5 samples): 36.5 days
half-life ([3]; subject 13, 5 samples): 36.5 days
half-life ([3]; subject 14, 4 samples): 36.5 days
half-life ([3]; subject 15, 5 samples): 73 days
half-life ([3]; subject 16, 5 samples): 256 days
half-life ([3]; subject 17, 5 samples): 36.5 days
Elimination rate ([3]; subject 1, 5 samples): 2.1 yearly
Elimination rate ([3]; subject 2, 5 samples): 3.7 yearly
Elimination rate ([3]; subject 3, 5 samples): 1.7 yearly
Elimination rate ([3]; subject 4, 5 samples): 3.2 yearly
Elimination rate ([3]; subject 5, 5 samples): 1.3 yearly
Elimination rate ([3]; subject 6, 4 samples): 4.1 yearly
Elimination rate ([3]; subject 7, 5 samples): 4.6 yearly
Elimination rate ([3]; subject 8, 5 samples): 5.4 yearly
Elimination rate ([3]; subject 9, 5 samples): 7.8 yearly
Elimination rate ([3]; subject 10, 5 samples): 2.2 yearly
Elimination rate ([3]; subject 11, 5 samples): 2.6 yearly
Elimination rate ([3]; subject 12, 5 samples): 6.7 yearly
Elimination rate ([3]; subject 13, 5 samples): 5.4 yearly
Elimination rate ([3]; subject 14, 4 samples): 6.6 yearly
Elimination rate ([3]; subject 15, 5 samples): 3.9 yearly
Elimination rate ([3]; subject 16, 5 samples): 0.9 yearly
Elimination rate ([3]; subject 17, 5 samples): 5.2 yearly
Serum/water ratio [4]: 4.74
Personal average urine/serum ratio, median (range) [5]: 0.086 (0.018–0.32)
Estimated half-life (geometric mean) ([6]; older females plus males): 1.0 y
Estimated half-life (geometric mean) ([6]; young females): 0.82 y
First-order apparent elimination half-life (geometric mean) ([6]; whole blood, five ski wax technicians, 7 months follow-up, ref Russell et al. 2015a): 70 days

O=S(=O)(O)C(F)(F)C(F)(F)C(F)(F)C(F)(F)C(F)(F)F [PFPeS, perfluoropentane sulfonic acid]
Specific gravity adjusted urinary level, 25 percentile [1, 7]: 0.06 ng/mL
Specific gravity adjusted urinary level, 75 percentile [1, 7]: 0.08 ng/mL
Specific gravity adjusted urinary level, Max [1, 7]: 0.11 ng/mL
Specific gravity adjusted urinary level, Median [1, 7]: 0.07 ng/mL
Specific gravity adjusted urinary level, Min [1, 7]: 0.04 ng/mL
Specific gravity adjusted urinary level, 25 percentile [1, 8]: 0.05 ng/mL
Specific gravity adjusted urinary level, 75 percentile [1, 8]: 0.09 ng/mL
Specific gravity adjusted urinary level, Max [1, 8]: 0.12 ng/mL
Specific gravity adjusted urinary level, Median [1, 8]: 0.07 ng/mL
Specific gravity adjusted urinary level, Min [1, 8]: 0.02 ng/mL
Specific gravity adjusted urinary level, 25 percentile [1, 9]: 0.07 ng/mL
Specific gravity adjusted urinary level, 75 percentile [1, 9]: 0.08 ng/mL
Specific gravity adjusted urinary level, Max [1, 9]: 0.12 ng/mL
Specific gravity adjusted urinary level, Median [1, 9]: 0.08 ng/mL
Specific gravity adjusted urinary level, Min [1, 9]: 0.03 ng/mL
Specific gravity adjusted urinary level, 25 percentile [1, 10]: 0.06 ng/mL
Specific gravity adjusted urinary level, 75 percentile [1, 10]: 0.08 ng/mL
Specific gravity adjusted urinary level, Max [1, 10]: 0.09 ng/mL
Specific gravity adjusted urinary level, Median [1, 10]: 0.07 ng/mL
Specific gravity adjusted urinary level, Min [1, 10]: 0.05 ng/mL
Specific gravity adjusted urine level, median (range) [1]: 0.072 (0.021–0.12) ng/mL
Half-life shorter than L-PFOS ([2]; human, in vivo): 4 times
Constant elimination rate (95% CI) [2, 11]: 1.1 (0.68, 1.51) yearly
Half-life (95% CI) [2, 11]: 0.63 (0.46, 1.01) year
Constant elimination rate (95% CI) [2, 12]: 1.1 (0.68, 1.52) yearly
Half-life (95% CI) [2, 12]: 0.63 (0.46, 1.01) year
Elimination rate ([3]; subject 1, 5 samples): 0.7 yearly
HL (half-life) ([3]; subject 1, 5 samples): 1.0 year
Elimination rate ([3]; subject 2, 5 samples): 0.6 yearly
HL (half-life) ([3]; subject 2, 5 samples): 1.2 year
Elimination rate ([3]; subject 3, 5 samples): 0.7 yearly
HL (half-life) ([3]; subject 3, 5 samples): 0.9 year
Elimination rate ([3]; subject 4, 5 samples): 0.8 yearly
HL (half-life) ([3]; subject 4, 5 samples): 0.8 year
Elimination rate ([3]; subject 5, 5 samples): 0.4 yearly
HL (half-life) ([3]; subject 5, 5 samples): 1.7 year
Elimination rate ([3]; subject 6, 4 samples): 0.9 yearly
HL (half-life) ([3]; subject 6, 4 samples): 0.7 year
Elimination rate ([3]; subject 7, 5 samples): 0.7 yearly
HL (half-life) ([3]; subject 7, 5 samples): 0.9 year
Elimination rate ([3]; subject 8, 5 samples): 0.5 yearly
HL (half-life) ([3]; subject 8, 5 samples): 1.4 year
Elimination rate ([3]; subject 9, 5 samples): 0.7 yearly
HL (half-life) ([3]; subject 9, 5 samples): 1.0 year
Elimination rate ([3]; subject 10, 5 samples): 0.6 yearly
HL (half-life) ([3]; subject 10, 5 samples): 1.2 year
Elimination rate ([3]; subject 11, 5 samples): 2.0 yearly
HL (half-life) ([3]; subject 11, 5 samples): 0.3 year
Elimination rate ([3]; subject 12, 5 samples): 1.1 yearly
HL (half-life) ([3]; subject 12, 5 samples): 0.6 year
Elimination rate ([3]; subject 13, 5 samples): 0.8 yearly
HL (half-life) ([3]; subject 13, 5 samples): 0.9 year
Elimination rate ([3]; subject 14, 4 samples): 1.2 yearly
HL (half-life) ([3]; subject 14, 4 samples): 0.6 year
Elimination rate ([3]; subject 15, 5 samples): 2.5 yearly
HL (half-life) ([3]; subject 15, 5 samples): 0.3 year
Elimination rate ([3]; subject 16, 5 samples): 0.4 yearly
HL (half-life) ([3]; subject 16, 5 samples): 1.6 year
Elimination rate ([3]; subject 17, 5 samples): 2.4 yearly
HL (half-life) ([3]; subject 17, 5 samples): 0.3 year
Serum/water ratio [4]: 38.3
Urine/serum ratio higher than L-PFOS ([5]; in vivo): 10 times
Personal average urine/serum ratio, median (range) [5]: 0.0089 (0.0057–0.026)
Average half-life ([6]; highly exposed general population from Ronneby, Sweden, 108 Swedes, 5 y follow-up, ref Li et al. 2019): 1.0 y
